# According to patent US9714244B2, “Substituted pyrido[4,3-d]pyrimidines as Wee-1 inhibitors” (ALMAC DISCOVERY LIMITED, priority 2013, dated 2017):
# Columns and labels:
# AURKA (Aurora A) = AURKA (Aurora A) (Homo sapiens (Human), UniProt O14965); test: SelectScreen Kinase Profiling: AURKA; assay type: biochemical; details: 300-350 nM
# Text: (§1) Table 2 below highlights the selectivity of a representative compound of the invention against a panel of 50 kinases (assessed using the Invitrogen SelectScreen® Kinase Profiling Service).
# MARK2 = MARK2 (Homo sapiens (Human), UniProt Q7KZI7); test: SelectScreen Kinase Profiling: MARK2; assay type: biochemical; details: 300-350 nM
# MARK2, sequence (Q7KZI7 whole entry): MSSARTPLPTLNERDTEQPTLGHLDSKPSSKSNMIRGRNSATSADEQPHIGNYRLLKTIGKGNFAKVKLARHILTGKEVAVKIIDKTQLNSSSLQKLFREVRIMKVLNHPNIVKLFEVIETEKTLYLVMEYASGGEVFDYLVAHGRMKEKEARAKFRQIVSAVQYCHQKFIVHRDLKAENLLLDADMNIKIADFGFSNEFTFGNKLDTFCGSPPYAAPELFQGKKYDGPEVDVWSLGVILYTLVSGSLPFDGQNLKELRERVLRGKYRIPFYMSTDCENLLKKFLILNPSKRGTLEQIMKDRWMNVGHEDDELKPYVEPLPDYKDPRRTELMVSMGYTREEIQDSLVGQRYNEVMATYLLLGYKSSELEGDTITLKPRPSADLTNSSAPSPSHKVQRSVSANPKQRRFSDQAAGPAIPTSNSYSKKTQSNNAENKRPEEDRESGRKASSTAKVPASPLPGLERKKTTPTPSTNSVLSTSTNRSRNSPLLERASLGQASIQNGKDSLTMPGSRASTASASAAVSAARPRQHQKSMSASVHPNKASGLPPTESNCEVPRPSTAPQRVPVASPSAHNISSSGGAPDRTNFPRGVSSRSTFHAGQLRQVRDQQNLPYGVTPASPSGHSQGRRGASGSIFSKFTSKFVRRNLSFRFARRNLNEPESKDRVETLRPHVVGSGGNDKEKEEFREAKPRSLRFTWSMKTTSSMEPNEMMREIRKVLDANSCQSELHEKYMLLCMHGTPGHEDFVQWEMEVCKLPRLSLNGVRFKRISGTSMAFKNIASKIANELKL
# Text: as §1
# PHKG2 = PHKG2 (Homo sapiens (Human), UniProt P15735); test: SelectScreen Kinase Profiling: PHKG2; assay type: biochemical; details: 300-350 nM
# Text: as §1
# EGFR (ErbB1) = EGFR (ErbB1) (Homo sapiens (Human), UniProt P00533); test: SelectScreen Kinase Profiling: EGFR; assay type: biochemical; details: 300-350 nM
# AMPK A1/B1/G1 = AMPK A1/B1/G1 (Homo sapiens (Human), UniProt Q13131); test: SelectScreen Kinase Profiling: AMPK; assay type: biochemical; details: 300-350 nM
# Text: as §1
# RPS6KA3 (RSK2) = RPS6KA3 (RSK2) (Homo sapiens (Human), UniProt P51812); test: SelectScreen Kinase Profiling: RPS6KA3; assay type: biochemical; details: 300-350 nM
# RPS6KA3 (RSK2), sequence (P51812 whole entry): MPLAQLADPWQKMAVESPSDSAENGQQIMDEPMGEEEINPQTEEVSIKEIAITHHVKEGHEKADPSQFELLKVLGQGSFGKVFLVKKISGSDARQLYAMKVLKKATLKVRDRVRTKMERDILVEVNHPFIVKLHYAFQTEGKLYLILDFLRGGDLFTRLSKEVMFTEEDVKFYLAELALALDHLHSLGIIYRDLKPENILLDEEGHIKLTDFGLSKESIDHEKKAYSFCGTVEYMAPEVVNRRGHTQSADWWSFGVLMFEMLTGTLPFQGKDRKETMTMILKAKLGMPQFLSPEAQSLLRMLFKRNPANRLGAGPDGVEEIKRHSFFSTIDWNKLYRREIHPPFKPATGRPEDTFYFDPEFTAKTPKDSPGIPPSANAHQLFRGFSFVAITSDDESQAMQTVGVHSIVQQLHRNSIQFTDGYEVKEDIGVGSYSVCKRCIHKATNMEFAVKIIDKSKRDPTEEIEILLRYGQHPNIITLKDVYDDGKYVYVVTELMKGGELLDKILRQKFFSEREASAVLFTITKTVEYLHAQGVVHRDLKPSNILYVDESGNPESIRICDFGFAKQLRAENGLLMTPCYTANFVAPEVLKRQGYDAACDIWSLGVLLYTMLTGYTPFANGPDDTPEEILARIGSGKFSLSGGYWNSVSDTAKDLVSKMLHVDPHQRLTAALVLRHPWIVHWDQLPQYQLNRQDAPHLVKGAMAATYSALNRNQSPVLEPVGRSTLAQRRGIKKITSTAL
# ERBB2 (HER2) = ERBB2 (HER2) (Homo sapiens (Human), UniProt P04626); test: SelectScreen Kinase Profiling: ERBB2; assay type: biochemical; details: 300-350 nM
# Text: as §1
# PLK1 = PLK1 (Homo sapiens (Human), UniProt P53350); test: SelectScreen Kinase Profiling: PLK1; assay type: biochemical; details: 300-350 nM
# Text: as §1
# PRKACA (PKA) = PRKACA (PKA) (Homo sapiens (Human), UniProt P17612); test: SelectScreen Kinase Profiling: PRKACA; assay type: biochemical; details: 300-350 nM
# Text: as §1
# MAPK8 (JNK1) = MAPK8 (JNK1) (Homo sapiens (Human), UniProt P45983); test: SelectScreen Kinase Profiling: MAPK8; assay type: biochemical; details: 300-350 nM
# Text: as §1
# IGF1R = IGF1R (Homo sapiens (Human), UniProt P08069); test: SelectScreen Kinase Profiling: IGF1R; assay type: biochemical; details: 300-350 nM
# Text: as §1
# IRAK4 = IRAK4 (Homo sapiens (Human), UniProt Q9NWZ3); test: SelectScreen Kinase Profiling: IRAK4; assay type: biochemical; details: 300-350 nM
# Text: as §1
# FLT3 = FLT3 (Homo sapiens (Human), UniProt P36888); test: SelectScreen Kinase Profiling: FLT3; assay type: biochemical; details: 300-350 nM
# Text: as §1
# MAPK1 (ERK2) = MAPK1 (ERK2) (Homo sapiens (Human), UniProt P28482); test: SelectScreen Kinase Profiling: MAPK1; assay type: biochemical; details: 300-350 nM
# MAPK1 (ERK2), sequence (P28482 whole entry): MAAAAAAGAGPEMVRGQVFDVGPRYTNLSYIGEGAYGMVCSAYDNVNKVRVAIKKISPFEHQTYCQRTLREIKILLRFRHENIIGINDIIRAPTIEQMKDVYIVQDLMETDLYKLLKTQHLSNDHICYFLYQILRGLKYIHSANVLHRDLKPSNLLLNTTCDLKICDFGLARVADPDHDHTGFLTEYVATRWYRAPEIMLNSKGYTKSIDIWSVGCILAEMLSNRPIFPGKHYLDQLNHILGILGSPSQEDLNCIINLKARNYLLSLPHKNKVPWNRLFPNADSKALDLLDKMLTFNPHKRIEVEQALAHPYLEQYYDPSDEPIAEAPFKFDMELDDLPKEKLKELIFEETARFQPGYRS
# Text: as §1
# MAPKAPK2 = MAPKAPK2 (Homo sapiens (Human), UniProt P49137); test: SelectScreen Kinase Profiling: MAPKAPK2; assay type: biochemical; details: 300-350 nM
# Text: as §1
# Src = Src (Homo sapiens (Human), UniProt P12931); test: SelectScreen Kinase Profiling: SRC; assay type: biochemical; details: 300-350 nM
# Src, sequence (P12931 whole entry): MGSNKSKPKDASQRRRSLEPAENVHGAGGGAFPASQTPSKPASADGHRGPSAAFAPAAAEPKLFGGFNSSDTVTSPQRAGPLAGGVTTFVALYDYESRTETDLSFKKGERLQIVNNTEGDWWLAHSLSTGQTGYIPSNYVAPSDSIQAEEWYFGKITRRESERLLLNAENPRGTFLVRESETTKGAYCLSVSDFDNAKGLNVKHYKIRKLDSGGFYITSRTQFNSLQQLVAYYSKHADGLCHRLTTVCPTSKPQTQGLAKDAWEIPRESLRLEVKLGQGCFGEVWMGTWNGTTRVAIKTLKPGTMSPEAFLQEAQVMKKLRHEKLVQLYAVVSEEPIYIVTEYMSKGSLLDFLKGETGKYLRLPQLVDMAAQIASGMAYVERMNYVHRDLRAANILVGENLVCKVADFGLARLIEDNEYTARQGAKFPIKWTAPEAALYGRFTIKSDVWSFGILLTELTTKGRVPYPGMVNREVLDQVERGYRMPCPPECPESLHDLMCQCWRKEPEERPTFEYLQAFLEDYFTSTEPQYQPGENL
# FRAP1 (mTOR) = FRAP1 (mTOR) (Homo sapiens (Human), UniProt P42345); test: SelectScreen Kinase Profiling: FRAP1; assay type: biochemical; details: 300-350 nM
# Text: as §1
# LCK = LCK (Homo sapiens (Human), UniProt P06239); test: SelectScreen Kinase Profiling: LCK; assay type: biochemical; details: 300-350 nM
# Text: as §1
# [1] = CLint estimates using human liver microsomes; assay type: in vitro ADME; details: pH 7.4, read-out: HLM activity (HLM CLint)
# AKT1 (PKB alpha) = AKT1 (PKB alpha) (Homo sapiens (Human), UniProt P31749); test: SelectScreen Kinase Profiling: AKT1; assay type: biochemical; details: 300-350 nM
# Text: as §1
# DYRK3 = DYRK3 (Homo sapiens (Human), UniProt O43781); test: SelectScreen Kinase Profiling: DYRK3; assay type: biochemical; details: 300-350 nM
# DYRK3, sequence (O43781 whole entry): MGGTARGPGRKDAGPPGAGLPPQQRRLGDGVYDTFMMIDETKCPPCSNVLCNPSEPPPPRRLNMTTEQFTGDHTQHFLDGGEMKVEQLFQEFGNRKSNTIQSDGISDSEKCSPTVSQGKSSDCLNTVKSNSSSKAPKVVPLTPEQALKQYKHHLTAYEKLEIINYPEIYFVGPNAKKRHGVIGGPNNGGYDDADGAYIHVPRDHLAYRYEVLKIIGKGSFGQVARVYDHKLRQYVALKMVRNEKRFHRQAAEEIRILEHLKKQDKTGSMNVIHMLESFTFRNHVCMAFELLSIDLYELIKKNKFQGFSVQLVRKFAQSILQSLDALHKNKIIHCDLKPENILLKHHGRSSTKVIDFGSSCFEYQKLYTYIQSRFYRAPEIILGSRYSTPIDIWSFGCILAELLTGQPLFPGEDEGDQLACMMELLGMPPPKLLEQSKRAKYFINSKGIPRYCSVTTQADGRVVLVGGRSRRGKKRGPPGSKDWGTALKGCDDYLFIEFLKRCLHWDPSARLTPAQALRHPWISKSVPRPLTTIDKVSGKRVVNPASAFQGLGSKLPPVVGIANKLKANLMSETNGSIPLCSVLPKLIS
# Text: as §1
# MET (cMet) = MET (cMet) (Homo sapiens (Human), UniProt P08581); test: SelectScreen Kinase Profiling: MET; assay type: biochemical; details: 300-350 nM
# Text: as §1
# RPS6KB1 (p70S6K) = RPS6KB1 (p70S6K) (Homo sapiens (Human), UniProt P23443); test: SelectScreen Kinase Profiling: RPS6KB1; assay type: biochemical; details: 300-350 nM
# Text: as §1
# CHEK1 (CHK1) = CHEK1 (CHK1) (Homo sapiens (Human), UniProt O14757); test: SelectScreen Kinase Profiling: CHEK1; assay type: biochemical; details: 300-350 nM
# Text: as §1
# NTRK1 (TRKA) = NTRK1 (TRKA) (Homo sapiens (Human), UniProt P04629); test: SelectScreen Kinase Profiling: NTRK1; assay type: biochemical; details: 300-350 nM
# Text: as §1
# TEK (Tie2) = TEK (Tie2) (Homo sapiens (Human), UniProt Q02763); test: SelectScreen Kinase Profiling: TEK; assay type: biochemical; details: 300-350 nM
# Text: as §1
# PDGFRB (PDGFR beta) = PDGFRB (PDGFR beta) (Homo sapiens (Human), UniProt P09619); test: SelectScreen Kinase Profiling: PDGFRB; assay type: biochemical; details: 300-350 nM
# CSNK1G2 (CK1 gamma 2) = CSNK1G2 (CK1 gamma 2) (Homo sapiens (Human), UniProt P78368); test: SelectScreen Kinase Profiling: CSNK1G2; assay type: biochemical; details: 300-350 nM
# Text: as §1
# PIM1 = PIM1 (Homo sapiens (Human), UniProt P11309); test: SelectScreen Kinase Profiling: PIM1; assay type: biochemical; details: 300-350 nM
# Text: as §1
# INSR = INSR (Homo sapiens (Human), UniProt P06213); test: SelectScreen Kinase Profiling: INSR; assay type: biochemical; details: 300-350 nM
# Text: as §1
# KIT = KIT (Homo sapiens (Human), UniProt P10721); test: SelectScreen Kinase Profiling: KIT; assay type: biochemical; details: 300-350 nM
# KIT, sequence (P10721 26-976): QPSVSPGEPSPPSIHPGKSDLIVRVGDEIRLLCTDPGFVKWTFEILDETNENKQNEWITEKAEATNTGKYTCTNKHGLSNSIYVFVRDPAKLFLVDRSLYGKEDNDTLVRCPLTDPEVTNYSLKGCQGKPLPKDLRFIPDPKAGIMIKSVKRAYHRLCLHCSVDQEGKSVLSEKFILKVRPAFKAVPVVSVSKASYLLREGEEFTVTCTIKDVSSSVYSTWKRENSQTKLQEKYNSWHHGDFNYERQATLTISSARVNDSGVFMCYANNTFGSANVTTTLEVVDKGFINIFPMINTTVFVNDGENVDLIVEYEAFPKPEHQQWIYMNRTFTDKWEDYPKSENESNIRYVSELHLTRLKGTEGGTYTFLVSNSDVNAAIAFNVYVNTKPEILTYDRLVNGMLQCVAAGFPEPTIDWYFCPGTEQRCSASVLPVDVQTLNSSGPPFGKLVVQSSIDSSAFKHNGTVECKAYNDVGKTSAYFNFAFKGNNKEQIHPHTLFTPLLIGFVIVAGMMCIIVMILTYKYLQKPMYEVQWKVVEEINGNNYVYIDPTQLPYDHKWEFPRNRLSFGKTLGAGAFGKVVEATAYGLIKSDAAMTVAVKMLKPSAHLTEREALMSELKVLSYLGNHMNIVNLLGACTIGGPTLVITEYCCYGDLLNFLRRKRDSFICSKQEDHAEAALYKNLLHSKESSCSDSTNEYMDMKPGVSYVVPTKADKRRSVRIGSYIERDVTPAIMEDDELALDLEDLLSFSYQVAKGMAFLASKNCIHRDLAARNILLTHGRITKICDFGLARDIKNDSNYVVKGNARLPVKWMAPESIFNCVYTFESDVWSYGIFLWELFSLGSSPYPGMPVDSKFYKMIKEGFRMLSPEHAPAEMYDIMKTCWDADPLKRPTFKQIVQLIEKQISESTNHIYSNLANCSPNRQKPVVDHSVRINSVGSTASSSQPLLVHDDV
# Text: as §1
# MAP4K4 (HGK) = MAP4K4 (HGK) (Homo sapiens (Human), UniProt O95819); test: SelectScreen Kinase Profiling: MAP4K4; assay type: biochemical; details: 300-350 nM
# Text: as §1
# RET = RET (Homo sapiens (Human), UniProt P07949); test: SelectScreen Kinase Profiling: RET; assay type: biochemical; details: 300-350 nM
# RET, sequence (P07949 29-1114): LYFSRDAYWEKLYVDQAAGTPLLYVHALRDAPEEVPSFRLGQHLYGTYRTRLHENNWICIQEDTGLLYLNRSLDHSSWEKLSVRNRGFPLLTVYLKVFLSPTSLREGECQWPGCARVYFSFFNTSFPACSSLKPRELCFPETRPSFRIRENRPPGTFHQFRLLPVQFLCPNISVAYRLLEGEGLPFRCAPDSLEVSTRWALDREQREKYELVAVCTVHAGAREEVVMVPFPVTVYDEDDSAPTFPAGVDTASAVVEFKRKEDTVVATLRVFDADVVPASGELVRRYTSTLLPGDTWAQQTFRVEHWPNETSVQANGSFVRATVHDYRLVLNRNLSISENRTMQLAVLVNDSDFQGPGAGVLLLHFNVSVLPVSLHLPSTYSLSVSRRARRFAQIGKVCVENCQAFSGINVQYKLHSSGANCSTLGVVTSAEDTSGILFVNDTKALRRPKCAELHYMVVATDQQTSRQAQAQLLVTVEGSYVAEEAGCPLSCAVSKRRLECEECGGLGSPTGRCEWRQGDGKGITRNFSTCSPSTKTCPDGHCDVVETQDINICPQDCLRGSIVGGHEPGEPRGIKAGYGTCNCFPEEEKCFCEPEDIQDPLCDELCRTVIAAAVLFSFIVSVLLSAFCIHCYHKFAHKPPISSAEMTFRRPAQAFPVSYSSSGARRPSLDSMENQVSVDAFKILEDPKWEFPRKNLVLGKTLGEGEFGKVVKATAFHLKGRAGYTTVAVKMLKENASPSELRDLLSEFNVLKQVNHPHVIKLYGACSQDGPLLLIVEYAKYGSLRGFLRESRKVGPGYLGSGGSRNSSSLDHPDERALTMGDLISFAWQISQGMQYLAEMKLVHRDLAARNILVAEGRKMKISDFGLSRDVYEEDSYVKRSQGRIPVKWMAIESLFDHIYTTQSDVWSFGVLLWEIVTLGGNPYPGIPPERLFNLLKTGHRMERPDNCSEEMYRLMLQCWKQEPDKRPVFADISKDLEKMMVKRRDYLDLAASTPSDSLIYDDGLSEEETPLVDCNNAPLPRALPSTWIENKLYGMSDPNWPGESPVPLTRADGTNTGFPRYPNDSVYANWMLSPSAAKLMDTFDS
# Text: as §1
smiles,measurement,setting,value
"O=c1c2cnc(Nc3ccc(N4CCNCC4)cc3)nc2ccn1-c1c(Cl)cccc1Cl [Example 1, 6-(2,6-Dichlorophenyl)-2-((4-(piperazin-1-yl)phenyl)amino)pyrido[4,3-d]pyrimidin-5(6H)-one]",Inhibition AURKA (Aurora A),AURKA (Aurora A),− (Inhibition <75% @ 300-350 nM)
same,Inhibition MARK2,MARK2,− (Inhibition <75% @ 300-350 nM)
same,Inhibition PHKG2,PHKG2,− (Inhibition <75% @ 300-350 nM)
same,Inhibition EGFR (ErbB1),EGFR (ErbB1),− (Inhibition <75% @ 300-350 nM)
same,Inhibition AMPK A1/B1/G1,AMPK A1/B1/G1,− (Inhibition <75% @ 300-350 nM)
same,Inhibition RPS6KA3 (RSK2),RPS6KA3 (RSK2),− (Inhibition <75% @ 300-350 nM)
same,Inhibition ERBB2 (HER2),ERBB2 (HER2),− (Inhibition <75% @ 300-350 nM)
same,Inhibition PLK1,PLK1,− (Inhibition <75% @ 300-350 nM)
same,Inhibition PRKACA (PKA),PRKACA (PKA),− (Inhibition <75% @ 300-350 nM)
same,Inhibition MAPK8 (JNK1),MAPK8 (JNK1),− (Inhibition <75% @ 300-350 nM)
same,Inhibition IGF1R,IGF1R,− (Inhibition <75% @ 300-350 nM)
same,Inhibition IRAK4,IRAK4,− (Inhibition <75% @ 300-350 nM)
same,Inhibition FLT3,FLT3,− (Inhibition <75% @ 300-350 nM)
same,Inhibition MAPK1 (ERK2),MAPK1 (ERK2),− (Inhibition <75% @ 300-350 nM)
same,Inhibition MAPKAPK2,MAPKAPK2,− (Inhibition <75% @ 300-350 nM)
same,Inhibition SRC,Src,− (Inhibition <75% @ 300-350 nM)
same,Inhibition FRAP1 (mTOR),FRAP1 (mTOR),− (Inhibition <75% @ 300-350 nM)
same,Inhibition LCK,LCK,− (Inhibition <75% @ 300-350 nM)
same,microsomal CLint at 1 μM,[1],≤ 20 µL/min/mg
same,Inhibition AKT1 (PKB alpha),AKT1 (PKB alpha),− (Inhibition <75% @ 300-350 nM)
same,Inhibition DYRK3,DYRK3,− (Inhibition <75% @ 300-350 nM)
same,Inhibition MET (cMet),MET (cMet),− (Inhibition <75% @ 300-350 nM)
same,Inhibition RPS6KB1 (p70S6K),RPS6KB1 (p70S6K),− (Inhibition <75% @ 300-350 nM)
same,Inhibition CHEK1 (CHK1),CHEK1 (CHK1),− (Inhibition <75% @ 300-350 nM)
same,Inhibition NTRK1 (TRKA),NTRK1 (TRKA),− (Inhibition <75% @ 300-350 nM)
same,Inhibition TEK (Tie2),TEK (Tie2),− (Inhibition <75% @ 300-350 nM)
same,Inhibition PDGFRB (PDGFR beta),PDGFRB (PDGFR beta),− (Inhibition <75% @ 300-350 nM)
same,Inhibition CSNK1G2 (CK1 gamma 2),CSNK1G2 (CK1 gamma 2),− (Inhibition <75% @ 300-350 nM)
same,Inhibition PIM1,PIM1,− (Inhibition <75% @ 300-350 nM)
same,Inhibition INSR,INSR,− (Inhibition <75% @ 300-350 nM)
same,Inhibition KIT,KIT,− (Inhibition <75% @ 300-350 nM)
same,Inhibition MAP4K4 (HGK),MAP4K4 (HGK),− (Inhibition <75% @ 300-350 nM)
same,Inhibition RET,RET,− (Inhibition <75% @ 300-350 nM)
